Assay results from patent US20090048196A1, “Membrane receptor for retinol binding protein mediates cellular uptake of vitamin A, methods of use and compositions” (THE REGENTS OF THE UNIVERSITY OF CALIFORNIA, priority 2007, published 2009).

Tests used:
Type in all cases: cell-based
human STRA6 = assay: STRA6 expression in WiDr cells (semi-quantitative PCR); conditions: 100 nM RNAi oligo, 65 hrs
Method: RNAi transfection and retinoic acid treatment of human WiDr colon adenocarcinoma cells: WiDr cells (American Type Culture Collection) were grown in Earle's balanced salt media with 10% FBS at 37° C. in a 95% air/5% CO2 humidified incubator. Human STRA6 RNAi oligo sequences were 5′-[…]-3′ (S-1) (SEQ ID NO:3), 5′-[…]-3′ (S-2) (SEQ ID NO:4); and 5′-[…]-3′ (S-3) (SEQ ID NO:5). Stealth™ negative control RNAi with medium GC (Invitrogen) was used for a negative control. WiDr cells were transfected with 100 nM RNAi oligos using DharmaFect1 (Dharmacon) according to the manufacture's protocol. WiDr Cells were split one day before RNAi transfection and cells were incubated with RNAi oligos for 65 hrs after transfection. Retinoic acid treatment was applied for 55 hours. RNA was isolated from WiDr cells using the RNeasy kit (Qiagen). Reverse transcription was performed with Invitrogen's SuperScriptIII First-Strand Synthesis System. Semi-Quantitative PCR was carried out for 24 cycles at 95° C. for 30 sec (denaturation), 63° C. for 30 sec (annealing), and 72° C. for 30 min (extension). cDNA synthesized from 40 ng of total RNA was used for each reaction. Primers used for PCR to detect human STRA6 were 5′-[…]-3′ (human STRA6 forward primer (SEQ ID NO:6)), 5′-[…]-3′ (human STRA6 reverse primer (SEQ ID NO:7)).

[1] = tested on: WiDr human colon adenocarcinoma cells; assay: Vitamin A uptake activity of WiDr cells from 3H-retinol/RBP; conditions: 100 nM RNAi oligo, 65 hrs
Method: (§1) Production of ^3H-retinol loaded RBP and retinol uptake assay based on ^3H-retinol/RBP: Apo-RBP was prepared from holo-RBP as described (3). Radioactive retinol (15-^3H(N)-retinol) was purchased from American Radiolabeled Chemicals Inc. Ten micrograms apo-His-RBP was incubated with 150 pmol retinol (3 μCi) at 24° C. overnight. Radiolabeled holo-His-RBP was bound to Ni-NTA resin and the resin was washed extensively with 10 mM imidazole in PBS. Radiolabeled His-RBP was eluted with 100 mM imidazole in PBS. For the vitamin A uptake assay, transfected or untransfected cells grown on 12-well or 24-well cell culture plates were washed once with PBS and incubated with the ^3H-retinol/RBP diluted in SFM for various lengths of time. The reactions were stopped by washing the cells with PBS and solubilizing cells in 1% Triton X-100 in PBS. Radioactivity was measured with a scintillation counter.
Effects of metabolic inhibitors on vitamin A uptake and endocytosis: To test the effect of metabolic inhibitors, cells were pretreated with metabolic inhibitors in serum free medium (50 mM 2-deoxyglucose and 5 mM sodium azide) at 37° C. for 30 min before incubation with ^3H-retinol/RBP for 45 min at 37° C. in the continued presence of the metabolic inhibitors. The slight increase in activity for MI-treated cells as shown in FIGS. 4C and 4D is reproducible. Endocytosis assay based on horseradish peroxidase (HRP) was performed similarly as described. Cells (80-100% confluence) were washed once with PBS and then incubated in SFM with or without metabolic inhibitors for 30 min at 37° C. […]
RNAi transfection and retinoic acid treatment of human WiDr colon adenocarcinoma cells: WiDr cells (American Type Culture Collection) were grown in Earle's balanced salt media with 10% FBS at 37° C. in a 95% air/5% CO2 humidified incubator. […] Semi-Quantitative PCR was carried out for 24 cycles at 95° C. for 30 sec (denaturation), 63° C. for 30 sec (annealing), and 72° C. for 30 min (extension). cDNA synthesized from 40 ng of total RNA was used for each reaction. […]

bovine STRA6 = assay: STRA6 expression in primary bovine RPE culture (semi-quantitative PCR); conditions: 100 nM RNAi oligo, transfected twice, 72 h each
Method: Primary culture and RNAi transfection of bovine RPE cells: Primary cultures of RPE cells were derived from adult bovine eyes obtained from a local slaughterhouse. After the removal of vitreous and retina, the posterior half of the eye was incubated in 2% Dispase solution (Boehringer Mannheim) for 2 h. Sheets of RPE cells were then collected and washed with Hanks' Balanced salt solution (Irvine Scientific). The RPE cells were exposed to 0.05% Trypsin and 0.02% EDTA solution for 5 minutes at room temperature. The RPE cells were suspended in CEM replacement medium containing 10% calf serum and 1% penicillin-streptomycin as described previously (12), and the cells were then seeded at a density of 3×10^5 cells/cm^2 onto 12 mm millicell-PCF culture wells with a pore size of 0.45 um (Millipore Corp.). The RPE cells were maintained at 37° C. in a 5% CO2 incubator for 10 days before RNAi transfection. For RNAi transfection, bovine RPE cells were washed once with PBS and incubated in fresh DMEM/10% FBS media. Cells were transfected with 100 nM RNAi oligos (Stealth RNAi, Invitrogen) using DharmaFect1 according to manufacturer's protocol and incubated at 37° C. for 72 h. Cells were then transfected under the same conditions and incubated for another 72 h. RNAi oligo sequences used for this assay were 5′-[…]-3′ (S-4) (SEQ ID NO:8), 5′-[…]-3′ (S-5) (SEQ ID NO:9) and 5′-[…]-3′ (S-6) (SEQ ID NO:10). Semi-quantitative PCR was carried out for 26 cycles at 95° C. for 30 sec (denaturation), 60° C. for 30 sec (annealing), and 72° C. for 30 min (extension). cDNA synthesized from 32 ng of total RNA was used for each reaction. Primers used for PCR reaction to detect bovine STRA6 are 5′-[…]-3′ (forward primer (SEQ ID NO:11)), 5′-[…]-3′ (reverse primer (SEQ ID NO:12)).

[2] = tested on: primary bovine RPE culture; assay: Vitamin A uptake activity of primary bovine RPE culture from holo-RBP; conditions: 100 nM RNAi oligo, transfected twice, 72 h each
Method: as §1
Primary culture and RNAi transfection of bovine RPE cells: Primary cultures of RPE cells were derived from adult bovine eyes obtained from a local slaughterhouse. After the removal of vitreous and retina, the posterior half of the eye was incubated in 2% Dispase solution (Boehringer Mannheim) for 2 h. Sheets of RPE cells were then collected and washed with Hanks' Balanced salt solution (Irvine Scientific). The RPE cells were exposed to 0.05% Trypsin and 0.02% EDTA solution for 5 minutes at room temperature. The RPE cells were suspended in CEM replacement medium containing 10% calf serum and 1% penicillin-streptomycin as described previously (12), and the cells were then seeded at a density of 3×10^5 cells/cm^2 onto 12 mm millicell-PCF culture wells with a pore size of 0.45 um (Millipore Corp.). The RPE cells were maintained at 37° C. in a 5% CO2 incubator for 10 days before RNAi transfection. […] Semi-quantitative PCR was carried out for 26 cycles at 95° C. for 30 sec (denaturation), 60° C. for 30 sec (annealing), and 72° C. for 30 min (extension). cDNA synthesized from 32 ng of total RNA was used for each reaction. […]

| Substance | STRA6 expression (human STRA6) | Vitamin A uptake activity [1] | STRA6 expression (bovine STRA6) | Vitamin A uptake activity [2] |
| --- | --- | --- | --- | --- |
| S-1: Human STRA6 RNAi oligo 5′-UGAAGCUCAUCCAACAGAAUAUGGC-3′ (SEQ ID NO:3) (listed as RNA, chemistry not given here) | suppresses | suppresses | – | – |
| S-3: Human STRA6 RNAi oligo 5′-UGAGUAAGCAGGACAAGACCAAGGC-3′ (SEQ ID NO:5) (listed as RNA, chemistry not given here) | suppresses | suppresses | – | – |
| S-6: Bovine STRA6 RNAi oligo 5′-GAGGAUUCCUAUGACAGCUGGUACA-3′ (SEQ ID NO:10) (listed as RNA, chemistry not given here) | – | – | suppresses | suppresses |
| S-5: Bovine STRA6 RNAi oligo 5′-GGCUACCACACAUACUGCAACUUCU-3′ (SEQ ID NO:9) (listed as RNA, chemistry not given here) | – | – | suppresses | suppresses |
| S-2: Human STRA6 RNAi oligo 5′-UAGAUGCAGUGUCUCAAGCAGACGC-3′ (SEQ ID NO:4) (listed as RNA, chemistry not given here) | suppresses | suppresses | – | – |
| S-4: Bovine STRA6 RNAi oligo 5′-CCGUCUACAUUCCACAACAAGGAUU-3′ (SEQ ID NO:8) (listed as RNA, chemistry not given here) | – | – | suppresses | suppresses |
